Experiments:
[1] = target: DGKζ (Homo sapiens, UniProt Q13574); test: In vitro DGKζ inhibition assay (ADP-Glo); format: biochemical; details: His-tagged human recombinant enzyme; 0.4 nM DGKζ, 30 μM ATP, 20 μM DLG; 90 minute incubation; ADP-Glo luminescence
Method: (§1) The DGKα and DGKζ biochemical reactions were performed using His-tagged human recombinant enzymes (Signal Chem, DGKα, #D21-10BH; DGKζ, #D30-10H)) and DLG (Dilauroyl-sn-glycerol) lipid substrate (Signal Chem, #D430-59). ADP-Glo assay was performed using ADP-Glo™ kinase Assay kit (Promega, #V9104). The reactions were carried out in assay buffer containing 40 mM Tris, pH 7.5, 0.1% CHAPS, 0.1% Prionex, 40 mM NaCl, 5 mM MgCl2, 1 mM CaCl2, and 1 mM DTT. DGKα reactions contained 0.1 nM DGKα, 50 μM ATP, and 20 μM DLG. And DGKζ reactions contained 0.4 nM DGKζ, 30 μM ATP, and 20 μM DLG. For compound inhibition studies, 40 nL test compound in DMSO was added to wells of white polystyrene plates in 384-well (Greiner, #784075) or 1536-well format (Greiner, #782075). Compounds were added with top concentration of 2 mM with 11 point, 3-fold dilution series. Enzyme solution (contains 2× DGK enzyme concentration in 1× assay buffer) was added to the plate in 2 μL/well volume, followed by 2 μL/well of substrate solution (contains 2× concentration of ATP and DLG substrate in 1× assay buffer). Plates were then centrifuged for 1 min at 1200 RPM and sealed or lidded. For 4 μL reaction volume, test compounds were therefore diluted 100× to final top concentration of 20 μM. After 90 minute incubation, reactions were quenched by addition of 2 μL/well Promega ADP-Glo Reagent, followed by centrifugation and lidding. After 60 min incubation, 2 μL/well Promega Kinase Detection Reagent was added, plates centrifuged, and incubated for 30 min. Plates were then read using Luminescence method on BMG PHERAstar FSX plate reader. Percent inhibition was calculated and IC50s were determined using 4-parameter fit in Genedata Screener. Labcyte Echo acoustic dispenser was used for compound addition, and Formulatrix Tempest liquid handler was used for all reagent dispenses.

[2] = target: T1, DGKα (Homo sapiens, UniProt P23743); test: In vitro DGKα inhibition assay (ADP-Glo); format: biochemical; details: His-tagged human recombinant enzyme; 0.1 nM DGKα, 50 μM ATP, 20 μM DLG; 90 minute incubation; ADP-Glo luminescence
T1 construct: His; purchased Signal Chem D21-10BH
Method: as §1

T1 sequence (P23743 whole entry): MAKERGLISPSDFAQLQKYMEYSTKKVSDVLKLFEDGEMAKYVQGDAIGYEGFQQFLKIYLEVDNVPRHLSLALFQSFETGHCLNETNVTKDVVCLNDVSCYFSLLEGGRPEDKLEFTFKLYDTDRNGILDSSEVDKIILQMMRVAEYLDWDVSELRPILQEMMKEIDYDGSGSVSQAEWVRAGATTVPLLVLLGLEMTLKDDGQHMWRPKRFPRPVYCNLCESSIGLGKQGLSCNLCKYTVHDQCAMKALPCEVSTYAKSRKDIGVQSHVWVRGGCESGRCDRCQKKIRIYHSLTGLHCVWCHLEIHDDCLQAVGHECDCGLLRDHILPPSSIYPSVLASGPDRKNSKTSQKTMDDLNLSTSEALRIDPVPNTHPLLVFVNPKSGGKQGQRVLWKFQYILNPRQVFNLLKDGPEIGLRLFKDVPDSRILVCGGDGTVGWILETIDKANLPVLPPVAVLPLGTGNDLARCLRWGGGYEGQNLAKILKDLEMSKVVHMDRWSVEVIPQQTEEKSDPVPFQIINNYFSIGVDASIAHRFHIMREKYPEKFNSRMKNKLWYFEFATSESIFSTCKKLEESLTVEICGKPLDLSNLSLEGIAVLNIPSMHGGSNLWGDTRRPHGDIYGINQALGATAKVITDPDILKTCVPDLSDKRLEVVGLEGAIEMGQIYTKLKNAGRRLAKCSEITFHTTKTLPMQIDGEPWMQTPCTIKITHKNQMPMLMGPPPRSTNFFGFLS
Chain of DGKζ (Q13574 whole entry): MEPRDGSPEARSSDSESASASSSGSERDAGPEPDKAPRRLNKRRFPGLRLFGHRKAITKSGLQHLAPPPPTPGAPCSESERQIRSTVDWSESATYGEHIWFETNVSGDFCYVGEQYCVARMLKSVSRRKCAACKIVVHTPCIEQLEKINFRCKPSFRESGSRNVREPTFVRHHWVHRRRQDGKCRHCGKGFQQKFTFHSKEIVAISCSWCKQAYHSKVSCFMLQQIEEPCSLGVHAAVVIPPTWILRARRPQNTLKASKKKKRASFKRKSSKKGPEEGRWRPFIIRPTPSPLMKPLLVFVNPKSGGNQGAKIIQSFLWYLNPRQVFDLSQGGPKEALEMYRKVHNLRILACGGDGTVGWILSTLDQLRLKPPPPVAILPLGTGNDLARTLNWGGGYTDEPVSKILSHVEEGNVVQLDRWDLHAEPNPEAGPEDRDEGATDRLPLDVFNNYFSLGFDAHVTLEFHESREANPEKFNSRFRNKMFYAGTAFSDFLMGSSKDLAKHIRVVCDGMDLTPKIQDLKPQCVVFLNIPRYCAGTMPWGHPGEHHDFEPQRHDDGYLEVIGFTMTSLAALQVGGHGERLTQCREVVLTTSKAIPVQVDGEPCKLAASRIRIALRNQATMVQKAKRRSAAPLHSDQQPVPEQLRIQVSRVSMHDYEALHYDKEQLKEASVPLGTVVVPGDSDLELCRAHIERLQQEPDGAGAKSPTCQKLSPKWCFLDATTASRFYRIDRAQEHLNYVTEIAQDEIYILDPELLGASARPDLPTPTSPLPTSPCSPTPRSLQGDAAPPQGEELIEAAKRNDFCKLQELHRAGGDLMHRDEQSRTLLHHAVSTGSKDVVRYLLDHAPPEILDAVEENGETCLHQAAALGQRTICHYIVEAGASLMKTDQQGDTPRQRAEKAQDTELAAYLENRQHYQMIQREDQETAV

Compound	IC50 [1]	IC50 [2]
F/C(=C\c1ccc(Oc2ccccc2F)c(C(F)(F)F)c1N1CCOC2(CCN(CC3CC3)CC2)C1)c1nccc(-c2ccnnc2)n1 [Example 42, (Z)-9-(Cyclopropylmethyl)-4-(6-(2-fluoro-2-(4-(pyridazin-4-yl)pyrimidin-2-yl)vinyl)-3-(2-fluorophenoxy)-2-(trifluoromethyl)phenyl)-1-oxa-4,9-diazaspiro[5.5]undecane]	≤ 0.02 µM	≤ 0.02 µM
NC[C@@H]1CCCN(c2c(/C=C(\F)c3nccc(-c4ccnnc4)n3)ccc(Oc3ccccc3)c2C(F)(F)F)C1 [Example 43, (S,Z)-(1-(6-(2-Fluoro-2-(4-(pyridazin-4-yl)pyrimidin-2-yl)vinyl)-3-phenoxy-2-(trifluoromethyl)phenyl)piperidin-3-yl)methanamine]	≤ 0.02 µM	≤ 0.02 µM
CCN1CCC2(CCCN(c3c(/C=C(\F)c4cncc(N5CC(F)(F)C5)n4)ccc(Oc4ccccc4F)c3C(F)(F)F)C2)CC1 [Example 44, (Z)-2-(6-(2-(6-(3,3-Difluoroazetidin-1-yl)pyrazin-2-yl)-2-fluorovinyl)-3-(2-fluorophenoxy)-2-(trifluoromethyl)phenyl)-9-ethyl-2,9-diazaspiro[5.5]undecane]	≤ 0.02 µM	≤ 0.02 µM
OCCN1CCC2(CCCN(c3c(/C=C(\F)c4nccc(-c5cnsc5)n4)ccc(Oc4ccccc4F)c3C(F)(F)F)C2)CC1 [Example 45, (Z)-2-(2-(6-(2-Fluoro-2-(4-(isothiazol-4-yl)pyrimidin-2-yl)vinyl)-3-(2-fluorophenoxy)-2-(trifluoromethyl)phenyl)-2,9-diazaspiro[5.5]undecan-9-yl)ethan-1-ol]	≤ 0.02 µM	≤ 0.02 µM
CCN1CCC2(CCCN(c3c(/C=C(\F)c4nccc(-c5cnsc5)n4)ccc(Oc4ccccc4F)c3C(F)(F)F)C2)CC1 [Example 46, (Z)-4-(2-(2-(2-(9-Ethyl-2,9-diazaspiro[5.5]undecan-2-yl)-4-(2-fluorophenoxy)-3-(trifluoromethyl)phenyl)-1-fluorovinyl)pyrimidin-4-yl)isothiazole]	≤ 0.02 µM	≤ 0.02 µM
F/C(=C\c1ccc(Oc2cccc(F)c2F)c(C(F)(F)F)c1N1CCCC2(CCN(CC3CC3)CC2)C1)c1cncc(-c2cnsc2)n1 [Example 47, (Z)-4-(6-(2-(2-(9-(Cyclopropylmethyl)-2,9-diazaspiro[5.5]undecan-2-yl)-4-(2,3-difluorophenoxy)-3-(trifluoromethyl)phenyl)-1-fluorovinyl)pyrazin-2-yl)isothiazole]	≤ 0.02 µM	≤ 0.02 µM
F/C(=C\c1ccc(OC2CCCCC2)c(C(F)(F)F)c1N1CCCC2(CCN(CC3CC3)CC2)C1)c1cncc(-c2ccnnc2)n1 [Example 48, (Z)-2-(3-(Cyclohexyloxy)-6-(2-fluoro-2-(6-(pyridazin-4-yl)pyrazin-2-yl)vinyl)-2-(trifluoromethyl)phenyl)-9-(cyclopropylmethyl)-2,9-diazaspiro[5.5]undecane]	≤ 0.02 µM	≤ 0.02 µM
F/C(=C\c1ccc(Oc2cccc(F)c2F)c(C(F)(F)F)c1N1CCCC2(CCN(CC3CC3)CC2)C1)c1cncc(-c2ccns2)n1 [Example 49, (Z)-5-(6-(2-(2-(9-(Cyclopropylmethyl)-2,9-diazaspiro[5.5]undecan-2-yl)-4-(2,3-difluorophenoxy)-3-(trifluoromethyl)phenyl)-1-fluorovinyl)pyrazin-2-yl)isothiazole]	≤ 0.02 µM	≤ 0.02 µM
F/C(=C\c1ccc(OC2CCCCC2)c(C(F)(F)F)c1N1CCCC2(CCN(CC3CC3)CC2)C1)c1nccc(-c2ccnnc2)n1 [Example 50, (Z)-2-(3-(Cyclohexyloxy)-6-(2-fluoro-2-(4-(pyridazin-4-yl)pyrimidin-2-yl)vinyl)-2-(trifluoromethyl)phenyl)-9-(cyclopropylmethyl)-2,9-diazaspiro[5.5]undecane]	≤ 0.02 µM	≤ 0.02 µM
F/C(=C\c1ccc(OC2CCCC2)c(C(F)(F)F)c1N1CCCC2(CCN(CC3CC3)CC2)C1)c1nccc(-c2ccnnc2)n1 [Example 51, (Z)-2-(3-(Cyclopentyloxy)-6-(2-fluoro-2-(4-(pyridazin-4-yl)pyrimidin-2-yl)vinyl)-2-(trifluoromethyl)phenyl)-9-(cyclopropylmethyl)-2,9-diazaspiro[5.5]undecane]	≤ 0.02 µM	≤ 0.02 µM
F/C(=C\c1ccc(OC2CCC2)c(C(F)(F)F)c1N1CCCC2(CCN(CC3CC3)CC2)C1)c1nccc(-c2ccnnc2)n1 [Example 52, (Z)-2-(3-Cyclobutoxy-6-(2-fluoro-2-(4-(pyridazin-4-yl)pyrimidin-2-yl)vinyl)-2-(trifluoromethyl)phenyl)-9-(cyclopropylmethyl)-2,9-diazaspiro[5.5]undecane]	≤ 0.02 µM	≤ 0.02 µM
CCN1CCC2(CCCN(c3c(/C=C(\F)c4nccc(-c5ccnnc5)n4)ccc(OC4CCCC4)c3C(F)(F)F)C2)CC1 [Example 53, (Z)-2-(3-(Cyclopentyloxy)-6-(2-fluoro-2-(4-(pyridazin-4-yl)pyrimidin-2-yl)vinyl)-2-(trifluoromethyl)phenyl)-9-ethyl-2,9-diazaspiro[5.5]undecane]	≤ 0.02 µM	≤ 0.02 µM
CCN1CCC2(CCCN(c3c(/C=C(\F)c4nccc(-c5ccnnc5)n4)ccc(OC4CC5CC(C5)C4)c3C(F)(F)F)C2)CC1 (stereo not drawn) [Example 54, (Z)-2-(3-(Bicyclo[3.1.1]heptan-3-yloxy)-6-(2-fluoro-2-(4-(pyridazin-4-yl)pyrimidin-2-yl)vinyl)-2-(trifluoromethyl)phenyl)-9-ethyl-2,9-diazaspiro[5.5]undecane]	≤ 0.02 µM	≤ 0.02 µM
F/C(=C\c1ccc(Oc2ccccc2F)c(C(F)(F)F)c1N1CCCC2(CCN(CC3CC3)CC2)C1)c1nccc(-c2cnsc2)n1 [Example 55, (Z)-4-(2-(2-(2-(9-(Cyclopropylmethyl)-2,9-diazaspiro[5.5]undecan-2-yl)-4-(2-fluorophenoxy)-3-(trifluoromethyl)phenyl)-1-fluorovinyl)pyrimidin-4-yl)isothiazole]	≤ 0.02 µM	≤ 0.02 µM
F/C(=C\c1ccc(Oc2ccccc2F)c(C(F)(F)F)c1N1CCCC2(CCN(CC3CC3)CC2)C1)c1cncc(-c2cnsc2)n1 [Example 56, (Z)-4-(6-(2-(2-(9-(Cyclopropylmethyl)-2,9-diazaspiro[5.5]undecan-2-yl)-4-(2-fluorophenoxy)-3-(trifluoromethyl)phenyl)-1-fluorovinyl)pyrazin-2-yl)isothiazole]	≤ 0.02 µM	≤ 0.02 µM
F/C(=C\c1ccc(Oc2ccccc2F)c(C(F)(F)F)c1N1CCCC2(CCN(CC3CC3)CC2)C1)c1cncc(N2CC(F)(F)C2)n1 [Example 57, (Z)-9-(Cyclopropylmethyl)-2-(6-(2-(6-(3,3-difluoroazetidin-1-yl)pyrazin-2-yl)-2-fluorovinyl)-3-(2-fluorophenoxy)-2-(trifluoromethyl)phenyl)-2,9-diazaspiro[5.5]undecane]	≤ 0.02 µM	≤ 0.02 µM
CCN1CCC2(CCCN(c3c(/C=C(\F)c4cncc(N5CCC(F)(F)C5)n4)ccc(Oc4ccccc4F)c3C(F)(F)F)C2)CC1 [Example 58, (Z)-2-(6-(2-(6-(3,3-Difluoropyrrolidin-1-yl)pyrazin-2-yl)-2-fluorovinyl)-3-(2-fluorophenoxy)-2-(trifluoromethyl)phenyl)-9-ethyl-2,9-diazaspiro[5.5]undecane]	≤ 0.02 µM	≤ 0.02 µM
F/C(=C\c1ccc(Oc2ccccc2F)c(C(F)(F)F)c1N1CCCC2(CCN(CC3CC3)CC2)C1)c1cncc(N2CCC(F)(F)C2)n1 [Example 59, (Z)-9-(Cyclopropylmethyl)-2-(6-(2-(6-(3,3-difluoropyrrolidin-1-yl)pyrazin-2-yl)-2-fluorovinyl)-3-(2-fluorophenoxy)-2-(trifluoromethyl)phenyl)-2,9-diazaspiro[5.5]undecane]	≤ 0.02 µM	≤ 0.02 µM

Source: patent publication US20240217989A1, “Heteroaryl Fluoroalkenes As DGK Inhibitors” (Incyte Corporation, priority 2022, published 2024)
